Measured values: patent US10172805B2, “Prolonged release formulations comprising an 2-oxo-1-pyrrolidine derivative” (UCB BIOPHARMA SPRL, priority 2008, dated 2019)

Experiments:
[1] = A. J. GOWER et al., Eur. J. Pharmacol., 222, (1992), 193-203; cited from earlier work
[2] = test system: adult patients with refractory partial onset seizures; experiment: clinical studies, adjunctive treatment of partial onset seizures (epilepsy); assay type: in vivo, human
Procedure: (§1) Brivaracetam is effective in the treatment of epilepsy. A clinical trial evaluated the efficacy and safety of Brivaracetam (5, 20 and 50 mg per day) in the adjunctive treatment of adult patients with refractory partial onset seizures, with or without secondary generalization. Brivaracetam is also effective in the treatment of patients with post-herpetic neuralgia.
Seletracetam is effective in the treatment of epilepsy. Two studies were conducted with Seletracetam in epilepsy evaluating the efficacy and safety of Seletracetam in the adjunctive treatment of partial onset seizures in highly refractory adult patients currently receiving up to three concomitant anti-epileptic drugs.

GAERS rats = experiment: spontaneous SWDs in GAERS rats; assay type: in vivo, rat
mice [3] = experiment: corneal kindling of mice; assay type: in vivo
mice [4] = experiment: maximal electroshock in mice; assay type: in vivo; conditions: i.p. 30 min before seizure induction; higher ED50 values than audiogenic
[5] = test system: patients with post-herpetic neuralgia; experiment: treatment of patients with post-herpetic neuralgia; assay type: in vivo, human
Procedure: as §1

amygdala-kindled rats = experiment: fully amygdala-kindled rats; assay type: in vivo, rat; conditions: for dose significantly reducing the after-discharge duration: brivaracetam at highest dose tested, levetiracetam inactive up to stated dose
BCS classification = assay type: physicochemical
Procedure: Considering Levetiracetam, Brivaracetam and Seletracetam are classified as BCS I, in order to achieve a prolonged therapeutic plasmatic drug level the resulting in vitro dissolution (USP<711> apparatus n°2) in a buffered aqueous media has to show a drug release of no more than 40% after 1 hour of dissolution, of 25% -80% after 4 hours of dissolution and of no less than 80% after 16 hours of dissolution. Preferably, a profile of no more than 35% after 1 hour of dissolution, of 35% -75% after 4 hours of dissolution and of no less than 80% after 16 hours of dissolution. More preferably a profile of no more than 30% after 1 hour of dissolution, of 45% -70% after 4 hours of dissolution and of no less than 80% after 16 hours of dissolution.

rat hippocampal slices [6] = experiment: epileptiform responses in hippocampal slices induced by high-K+/low-Ca2+ fluid (HKLCF); assay type: cell-based, Sprague-Dawley rats; parameters: rate of spontaneous field bursting: dose or concentration left out as unconfirmed; conditions: for evoked epileptiform responses (PS1 amplitude, repetitive PSs) in CA3 area: HKLCF perfusion, fimbrial stimulation
Procedure: The effect of brivaracetam on epileptiform responses induced by high-K+/low-Ca2+ concentrations or by bicuculline was examined in transverse hippocampal slices prepared from Sprague-Dawley rats according to previously reported standard procedures. The epileptiform responses were induced by passing from a normal perfusion of artificial cerebrospinal fluid (ACSF) (K+3 mM; Ca2+2.4 mM) to either high-K+/low-Ca2+ fluid (HKLCF) (K+7.5 mM; Ca2+0.5 mM) or to […] bicuculline methiodide (BMI)-containing ACSF.
Extracellular field potentials (FPs) were recorded in the CA3 area of the slices with 2 M NaCl-filled glass microelectrodes. The evoked FPs were recorded at 10-min intervals in response to fimbrial stimulation with constant current rectangular pulses that elicit a single population spike (PS) of 50-75% of the maximal amplitude when the slice is in ACSF. In the HKLCF model, 2 min of spontaneous activity were also recorded, in the middle of each 10-min interval between the recordings of evoked responses.
Either brivaracetam or levetiracetam was added to the bathing fluid of the slices 20 min before shifting from ACSF to either HKLCF or […] BMI-containing ACSF, and was kept in the perfusion fluid throughout the experiment.

[7] = test system: genetically sound-sensitive male mice; experiment: audiogenic seizures in mice; assay type: in vivo; conditions: audiogenic seizure-susceptible mice; i.p.
Procedure: Audiogenic seizures in mice: Genetically sound-sensitive male mice (16-28 g; n=10 per group), responding with wild running, clonic and tonic convulsions to an acoustic stimulation, were used. Audiogenic seizures were induced by an acoustic stimulus (90 dB, 10-20 kHz) applied for 30 s. The mice were pretreated with either saline, brivaracetam (i.p., 30 min) or levetiracetam (i.p., 60 min), and the proportion of mice protected against clonic convulsions was used as the end point to assess anticonvulsant activity.

mice [8] = experiment: chemically induced seizures in mice (pentylenetetrazol); assay type: in vivo; conditions: i.p. 30 min before seizure induction; higher ED50 values than audiogenic
Procedure: The dose was selected based on dose-effect curves in saline-treated animals as the convulsive dose inducing clonic convulsions of all four extremities in 97% of the animals. Immediately after administration of the chemoconvulsant, the mice were placed individually in small plastic cages (25 13 8 cm) and observed for the presence of clonic convulsions in all four extremities, for 60 min. The occurrence of tonic convulsions (hindlimb extension) and mortality was also recorded during this interval. The proportion of mice protected against clonic convulsions was calculated and used as the end point for anticonvulsant activity.

water solubility = assay type: physicochemical
rat hippocampal slices [9] = conditions: introductory statement; cited from earlier work
rat hippocampal slices [10] = conditions: introductory statement; cited from earlier work; remark: listed apart in the source

| SMILES | activity in the treatment of epilepsy [1] | efficacy in the treatment of epilepsy [2] | dose from which spontaneous SWDs are significantly suppressed (GAERS rats) | inhibition of spontaneous SWDs (GAERS rats; highest dose tested (67.9 mg kg−1)) | incidence of generalized motor seizures after termination of treatment (mice [3]; continued corneal stimulations, group previously treated with the highest dose) | incidence of generalized motor seizures (mice [3]; pretreatment during corneal kindling, levetiracetam at higher doses) | protection against tonic hindlimb extension induced by a maximal electroshock (mice [4]) | efficacy in post-herpetic neuralgia [5] | dose from which significant suppression in motor-seizure severity is induced (amygdala-kindled rats) | dose significantly reducing the after-discharge duration (amygdala-kindled rats) | BCS class (BCS classification) | rate of spontaneous field bursting (rat hippocampal slices [6]; HKLCF) | evoked epileptiform responses (PS1 amplitude, repetitive PSs) in CA3 area (rat hippocampal slices [6]) | protection against clonic convulsions [7] | protection against clonic convulsions induced by pentylenetetrazol (mice [8]) | solubility (water solubility) | epileptiform responses induced by high-K+/low-Ca2+ concentrations (rat hippocampal slices [9]) | epileptiform responses induced by bicuculline (rat hippocampal slices [10]) |
| --- | --- | --- | --- | --- | --- | --- | --- | --- | --- | --- | --- | --- | --- | --- | --- | --- | --- | --- |
| CC[C@H](C(N)=O)N1CCCC1=O [(R)-(+)-α-ethyl-2-oxo-1-pyrrolidine-acetamide] | completely devoid of activity |  |  |  |  |  |  |  |  |  |  |  |  |  |  |  |  |  |
| CCC[C@@H]1CC(=O)N([C@@H](CC)C(N)=O)C1 [Brivaracetam, (2S)-2-[(4R)-2-oxo-4-propyl-pyrrolidin-1-yl] butanamide] |  | effective | 2.1 mg/kg | complete inhibition | persistent reduction | significant reduction | protected | effective | 21.2 mg/kg | 212.3 mg/kg | BCS I | reduced the rate | reduced these epileptiform responses | protected | protected |  |  |  |
| CC[C@@H](C(N)=O)N1CCCC1=O [Levetiracetam, (S)-(−)α-ethyl-2-oxo-1-pyrrolidineacetamide] |  |  | 5.4 mg/kg |  |  |  |  |  | 170 mg/kg | > 1700 mg/kg | BCS I |  | reduced these epileptiform responses | protected |  | > 500 mg/mL | reduces epileptiform responses | reduces epileptiform responses |
| CC[C@@H](C(N)=O)N1C[C@H](C=C(F)F)CC1=O [Seletracetam, (2S)-2-[(4S)-4-(2,2-difluorovinyl)-2-oxo-pyrrolidin-1-yl]butanamide] |  | effective |  |  |  |  |  |  |  |  | BCS I |  |  |  |  |  |  |  |
